Source: the supplement of paper PMC10307832

Assays:
Experiment in all cases: relative viability (nuclei count vs DMSO), 5 days (fraction); higher = more cells survive
[1] = compound: C[C@@H](N)c1ccc(C(=O)Nc2ccnc3[nH]ccc23)cc1 + Cc1nc(Nc2ncc(C(=O)Nc3c(C)cccc3Cl)s2)cc(N2CCN(CCO)CC2)n1 [Dasatinib] (partner 0.075 µM)
Outline: (§1)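 Lung cancer cell lines were pin-tool dosed in 1536-well plates on the day after seeding, with either a lone drug or a fixed anchor-drug dose plus five library-drug doses (not always all listed) in √10 steps. Nuclei were counted on 4× images after 5 days. Relative viability is the ratio of treated-well to vehicle-well nuclei counts, with each value a median of duplicate plates.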

Tanzisertib + Trametinib = compound: O[C@H]1CC[C@H](Nc2ncc3nc(Nc4c(F)cc(F)cc4F)n([C@H]4CCOC4)c3n2)CC1 [Tanzisertib] + CC(=O)Nc1cccc(-n2c(=O)n(C3CC3)c(=O)c3c(Nc4ccc(I)cc4F)n(C)c(=O)c(C)c32)c1 [Trametinib] (partner 0.02 µM)
Outline: as §1

Tanzisertib + Bortezomib = compound: O[C@H]1CC[C@H](Nc2ncc3nc(Nc4c(F)cc(F)cc4F)n([C@H]4CCOC4)c3n2)CC1 [Tanzisertib] + CC(C)C[C@H](NC(=O)[C@H](Cc1ccccc1)NC(=O)c1cnccn1)B(O)O [Bortezomib] (partner 0.002 µM)
Outline: as §1

[2] = compound: C1CNCCC1C2=CC(=NN2)C3=CC=NC=C3 + Nc1ncn([C@H]2C[C@H](O)[C@@H](CO)O2)c(=O)n1 [Decitabine] (partner 2 µM)
Outline: as §1

Cell Line: SK-LU-1
- relative viability ([1]; first compound 0.04 µM): 0.132
- relative viability ([1]; first compound 0.1265 µM): 0.138
- relative viability ([1]; first compound 0.4 µM): 0.136
- relative viability ([1]; first compound 1.265 µM): 0.109
- relative viability ([1]; first compound 4 µM): 0.121
- relative viability (Tanzisertib + Trametinib; first compound 0.08 µM): 0.576
- relative viability (Tanzisertib + Trametinib; first compound 0.253 µM): 0.507
- relative viability (Tanzisertib + Trametinib; first compound 0.8 µM): 0.528
- relative viability (Tanzisertib + Trametinib; first compound 2.53 µM): 0.54
- relative viability (Tanzisertib + Trametinib; first compound 8 µM): 0.471
- relative viability (Tanzisertib + Bortezomib; first compound 0.08 µM): 1.07
- relative viability (Tanzisertib + Bortezomib; first compound 0.253 µM): 1.19
- relative viability (Tanzisertib + Bortezomib; first compound 0.8 µM): 1.3
- relative viability (Tanzisertib + Bortezomib; first compound 2.53 µM): 1.18
- relative viability (Tanzisertib + Bortezomib; first compound 8 µM): 0.493
- relative viability ([2]; first compound 0.08 µM): 0.571
- relative viability ([2]; first compound 0.8 µM): 0.646
- relative viability ([2]; first compound 2.53 µM): 0.674
- relative viability ([2]; first compound 8 µM): 0.638

Cell Line: LOU-NH91
- relative viability ([1]; first compound 0.04 µM): 0.425
- relative viability ([1]; first compound 0.1265 µM): 0.571
- relative viability ([1]; first compound 0.4 µM): 0.527
- relative viability ([1]; first compound 1.265 µM): 0.492
- relative viability ([1]; first compound 4 µM): 0.394
- relative viability (Tanzisertib + Trametinib; first compound 0.08 µM): 0.824
- relative viability (Tanzisertib + Trametinib; first compound 0.253 µM): 0.811
- relative viability (Tanzisertib + Trametinib; first compound 0.8 µM): 0.773
- relative viability (Tanzisertib + Trametinib; first compound 2.53 µM): 0.756
- relative viability (Tanzisertib + Trametinib; first compound 8 µM): 0.71
- relative viability (Tanzisertib + Bortezomib; first compound 0.08 µM): 0.49
- relative viability (Tanzisertib + Bortezomib; first compound 0.253 µM): 0.516
- relative viability (Tanzisertib + Bortezomib; first compound 0.8 µM): 0.493
- relative viability (Tanzisertib + Bortezomib; first compound 2.53 µM): 0.502
- relative viability (Tanzisertib + Bortezomib; first compound 8 µM): 0.543
- relative viability ([2]; first compound 0.08 µM): 0.84
- relative viability ([2]; first compound 0.8 µM): 0.851
- relative viability ([2]; first compound 2.53 µM): 0.832
- relative viability ([2]; first compound 8 µM): 0.79

Cell Line: LXF-289
- relative viability ([1]; first compound 0.04 µM): 0.105
- relative viability ([1]; first compound 0.1265 µM): 0.234
- relative viability ([1]; first compound 0.4 µM): 0.185
- relative viability ([1]; first compound 1.265 µM): 0.11
- relative viability ([1]; first compound 4 µM): 0.116
- relative viability (Tanzisertib + Trametinib; first compound 0.08 µM): 0.694
- relative viability (Tanzisertib + Trametinib; first compound 0.253 µM): 0.691
- relative viability (Tanzisertib + Trametinib; first compound 0.8 µM): 0.748
- relative viability (Tanzisertib + Trametinib; first compound 2.53 µM): 0.663
- relative viability (Tanzisertib + Trametinib; first compound 8 µM): 0.82
- relative viability (Tanzisertib + Bortezomib; first compound 0.08 µM): 1.1
- relative viability (Tanzisertib + Bortezomib; first compound 0.253 µM): 1.03
- relative viability (Tanzisertib + Bortezomib; first compound 0.8 µM): 1.03
- relative viability (Tanzisertib + Bortezomib; first compound 2.53 µM): 0.977
- relative viability (Tanzisertib + Bortezomib; first compound 8 µM): 1.04
- relative viability ([2]; first compound 0.08 µM): 0.349
- relative viability ([2]; first compound 0.8 µM): 0.35
- relative viability ([2]; first compound 2.53 µM): 0.395
- relative viability ([2]; first compound 8 µM): 0.371

Cell Line: NCI-H1299
- relative viability (Tanzisertib + Bortezomib; first compound 0.08 µM): 1.03
- relative viability (Tanzisertib + Bortezomib; first compound 0.253 µM): 1.02
- relative viability (Tanzisertib + Bortezomib; first compound 0.8 µM): 1.07
- relative viability (Tanzisertib + Bortezomib; first compound 2.53 µM): 1.08
- relative viability (Tanzisertib + Bortezomib; first compound 8 µM): 1.13

Cell Line: HARA
- relative viability ([1]; first compound 0.1265 µM): 0.287
- relative viability ([1]; first compound 0.4 µM): 0.225
- relative viability ([1]; first compound 4 µM): 0.237
- relative viability (Tanzisertib + Trametinib; first compound 0.08 µM): 0.801
- relative viability (Tanzisertib + Trametinib; first compound 0.253 µM): 0.692
- relative viability (Tanzisertib + Trametinib; first compound 0.8 µM): 0.689
- relative viability (Tanzisertib + Trametinib; first compound 2.53 µM): 0.711
- relative viability (Tanzisertib + Trametinib; first compound 8 µM): 0.687
- relative viability (Tanzisertib + Bortezomib; first compound 0.08 µM): 1.22
- relative viability (Tanzisertib + Bortezomib; first compound 0.253 µM): 1.16
- relative viability (Tanzisertib + Bortezomib; first compound 0.8 µM): 1.18
- relative viability (Tanzisertib + Bortezomib; first compound 2.53 µM): 1.17
- relative viability (Tanzisertib + Bortezomib; first compound 8 µM): 1.18
- relative viability ([2]; first compound 0.08 µM): 0.471
- relative viability ([2]; first compound 0.8 µM): 0.524
- relative viability ([2]; first compound 2.53 µM): 0.762
- relative viability ([2]; first compound 8 µM): 0.432

Cell Line: LU99A
- relative viability ([1]; first compound 0.1265 µM): 0.507
- relative viability ([1]; first compound 0.4 µM): 0.536
- relative viability ([1]; first compound 1.265 µM): 0.495
- relative viability ([1]; first compound 4 µM): 0.508
- relative viability (Tanzisertib + Trametinib; first compound 0.08 µM): 0.632
- relative viability (Tanzisertib + Trametinib; first compound 0.253 µM): 0.573
- relative viability (Tanzisertib + Trametinib; first compound 0.8 µM): 0.591
- relative viability (Tanzisertib + Trametinib; first compound 2.53 µM): 0.531
- relative viability (Tanzisertib + Trametinib; first compound 8 µM): 0.559
- relative viability (Tanzisertib + Bortezomib; first compound 0.08 µM): 1.29
- relative viability (Tanzisertib + Bortezomib; first compound 0.253 µM): 1.07
- relative viability (Tanzisertib + Bortezomib; first compound 0.8 µM): 1.08
- relative viability (Tanzisertib + Bortezomib; first compound 2.53 µM): 1.19
- relative viability (Tanzisertib + Bortezomib; first compound 8 µM): 1.31
- relative viability ([2]; first compound 0.08 µM): 0.857
- relative viability ([2]; first compound 0.8 µM): 0.982
- relative viability ([2]; first compound 2.53 µM): 0.919
- relative viability ([2]; first compound 8 µM): 0.842

Cell Line: 201T
- relative viability ([1]; first compound 0.04 µM): 0.667
- relative viability ([1]; first compound 0.1265 µM): 0.635
- relative viability ([1]; first compound 0.4 µM): 0.674
- relative viability ([1]; first compound 1.265 µM): 0.738
- relative viability ([1]; first compound 4 µM): 0.808
- relative viability (Tanzisertib + Trametinib; first compound 0.08 µM): 0.731
- relative viability (Tanzisertib + Trametinib; first compound 0.253 µM): 0.756
- relative viability (Tanzisertib + Trametinib; first compound 0.8 µM): 0.701
- relative viability (Tanzisertib + Trametinib; first compound 2.53 µM): 0.806
- relative viability (Tanzisertib + Trametinib; first compound 8 µM): 0.764
- relative viability (Tanzisertib + Bortezomib; first compound 0.08 µM): 1.08
- relative viability (Tanzisertib + Bortezomib; first compound 0.253 µM): 1.17
- relative viability (Tanzisertib + Bortezomib; first compound 0.8 µM): 1.1
- relative viability (Tanzisertib + Bortezomib; first compound 2.53 µM): 1.12
- relative viability (Tanzisertib + Bortezomib; first compound 8 µM): 1.08
- relative viability ([2]; first compound 0.08 µM): 0.835
- relative viability ([2]; first compound 0.8 µM): 0.857
- relative viability ([2]; first compound 2.53 µM): 0.846
- relative viability ([2]; first compound 8 µM): 0.866

Cell Line: HCC-827
- relative viability ([1]; first compound 0.04 µM): 0.411
- relative viability ([1]; first compound 0.1265 µM): 0.466
- relative viability ([1]; first compound 0.4 µM): 0.433
- relative viability ([1]; first compound 1.265 µM): 0.46
- relative viability ([1]; first compound 4 µM): 0.267
- relative viability (Tanzisertib + Trametinib; first compound 0.08 µM): 0.556
- relative viability (Tanzisertib + Trametinib; first compound 0.253 µM): 0.552
- relative viability (Tanzisertib + Trametinib; first compound 0.8 µM): 0.481
- relative viability (Tanzisertib + Trametinib; first compound 2.53 µM): 0.411
- relative viability (Tanzisertib + Trametinib; first compound 8 µM): 0.265
- relative viability (Tanzisertib + Bortezomib; first compound 0.08 µM): 0.952
- relative viability (Tanzisertib + Bortezomib; first compound 0.253 µM): 1.06
- relative viability (Tanzisertib + Bortezomib; first compound 0.8 µM): 1.12
- relative viability (Tanzisertib + Bortezomib; first compound 2.53 µM): 1.04
- relative viability (Tanzisertib + Bortezomib; first compound 8 µM): 0.701
- relative viability ([2]; first compound 0.08 µM): 0.294
- relative viability ([2]; first compound 0.8 µM): 0.302
- relative viability ([2]; first compound 2.53 µM): 0.297
- relative viability ([2]; first compound 8 µM): 0.336

Cell Line: NCI-H1666
- relative viability ([1]; first compound 0.04 µM): 0.727
- relative viability ([1]; first compound 0.1265 µM): 0.803
- relative viability ([1]; first compound 0.4 µM): 0.822
- relative viability ([1]; first compound 1.265 µM): 0.722
- relative viability ([1]; first compound 4 µM): 0.625
- relative viability (Tanzisertib + Trametinib; first compound 0.08 µM): 0.842
- relative viability (Tanzisertib + Trametinib; first compound 0.253 µM): 0.839
- relative viability (Tanzisertib + Trametinib; first compound 0.8 µM): 0.968
- relative viability (Tanzisertib + Trametinib; first compound 2.53 µM): 0.862
- relative viability (Tanzisertib + Trametinib; first compound 8 µM): 0.908
- relative viability (Tanzisertib + Bortezomib; first compound 0.08 µM): 0.75
- relative viability (Tanzisertib + Bortezomib; first compound 0.253 µM): 0.732
- relative viability (Tanzisertib + Bortezomib; first compound 0.8 µM): 1.03
- relative viability (Tanzisertib + Bortezomib; first compound 2.53 µM): 0.872
- relative viability (Tanzisertib + Bortezomib; first compound 8 µM): 0.909
- relative viability ([2]; first compound 0.08 µM): 0.697
- relative viability ([2]; first compound 0.8 µM): 0.747
- relative viability ([2]; first compound 2.53 µM): 0.762
- relative viability ([2]; first compound 8 µM): 0.728
